Measurements as given in patent US20160009693A1, “HERBICIDAL COMPOUNDS” (SYNGENTA LIMITED, priority 2013, published 2016).

What was measured:
Format in all cases: in vivo
Details in all cases: applied at 1000 g/h, evaluated after 13 days
[1] = tested on: Alopecurus myosuroides (ALOMY); assay: Herbicidal glasshouse test, pre-emergence, ALOMY
Solanum nigrum (SOLNI) [2] = assay: Herbicidal glasshouse test, post-emergence, SOLNI
[3] = tested on: Echinochloa crus-galli (ECHCG); assay: Herbicidal glasshouse test, pre-emergence, ECHCG
Procedure, shortened: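 In this pre-emergence glasshouse test, ECHCG seeds sown in pots of standard soil were sprayed one day after sowing with the test material in acetone/water (50:50) containing 0.5% Tween 20. Plants were kept at 24/16° C., 14 hours light, 65% humidity, and watered twice daily. Percentage damage was rated after 13 days on a 1–5 scale.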

Solanum nigrum (SOLNI) [4] = assay: Herbicidal glasshouse test, pre-emergence, SOLNI
Procedure, shortened: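 This pre-emergence glasshouse herbicide test used Solanum nigrum sown in standard soil. One day after sowing, pots were sprayed with the compound in acetone/water (50:50) with 0.5% Tween 20. They were then grown at 24/16° C., with 14 hours light and 65% humidity, and watered twice daily. Percentage damage was scored after 13 days on a five point scale, where 5=80-100% and 1=0-19%.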

[5] = tested on: Echinochloa crus-galli (ECHCG); assay: Herbicidal glasshouse test, post-emergence, ECHCG
Procedure, shortened: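 In this post-emergence glasshouse test, barnyard grass (ECHCG) was cultivated for 8 days under controlled conditions (24/16° C. day/night, 14 hours light, 65% humidity). It was then sprayed with an aqueous solution of the technical compound in acetone / water (50:50) with 0.5% Tween 20. Plants were kept under the same conditions and watered twice daily. After 13 days, percentage damage was rated on a five point scale (5=80-100%; 1=0-19%).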

[6] = tested on: Ipomoea hederacea (IPOHE); assay: Herbicidal glasshouse test, pre-emergence, IPOHE
[7] = tested on: Ipomoea hederacea (IPOHE); assay: Herbicidal glasshouse test, post-emergence, IPOHE
[8] = tested on: Alopecurus myosuroides (ALOMY); assay: Herbicidal glasshouse test, post-emergence, ALOMY
Setaria faberi (SETFA) [9] = assay: Herbicidal glasshouse test, pre-emergence, SETFA
[10] = tested on: Amaranthus retoflexus (AMARE); assay: Herbicidal glasshouse test, post-emergence, AMARE
Procedure, shortened: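 This post-emergence glasshouse test used AMARE plants raised in standard soil for 8 days under controlled conditions (24/16° C. day/night, 14 hours light, 65% humidity). Foliage was sprayed with formulated compound in acetone/water (50:50) containing 0.5% Tween 20. Plants were then watered twice daily, and after 13 days percentage damage was rated on a five point scale.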

Setaria faberi (SETFA) [11] = assay: Herbicidal glasshouse test, post-emergence, SETFA
Procedure, shortened: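 This post-emergence glasshouse herbicide test used potted Setaria faberi. Plants were cultivated for 8 days under controlled conditions (24/16° C. day/night, 14 hours light, 65% humidity) and then treated with an aqueous spray made from an acetone/water (50:50) solution containing 0.5% Tween 20. After 13 days of further growth with twice-daily watering, damage was rated on a five point scale (5=80-100%; 1=0-19%).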

[12] = tested on: Amaranthus retoflexus (AMARE); assay: Herbicidal glasshouse test, pre-emergence, AMARE
Procedure, shortened: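 This pre-emergence glasshouse herbicide test used Amaranthus retoflexus sown in standard soil. After one day of cultivation, an aqueous spray made from the technical ingredient in 50:50 acetone/water with 0.5% Tween 20 was applied. Pots stayed at 24/16° C., 14 hours light, 65% humidity, with twice-daily watering. Damage was rated on a five point scale (1=0-19% up to 5=80-100%).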

SMILES | PRE Application ALOMY, percentage damage (five point scale) [1] | POST Application SOLNI, percentage damage (five point scale) (Solanum nigrum (SOLNI) [2]) | PRE Application ECHCG, percentage damage (five point scale) [3] | PRE Application SOLNI, percentage damage (five point scale) (Solanum nigrum (SOLNI) [4]) | POST Application ECHCG, percentage damage (five point scale) [5] | PRE Application IPOHE, percentage damage (five point scale) [6] | POST Application IPOHE, percentage damage (five point scale) [7] | POST Application ALOMY, percentage damage (five point scale) [8] | PRE Application SETFA, percentage damage (five point scale) (Setaria faberi (SETFA) [9]) | POST Application AMARE, percentage damage (five point scale) [10] | POST Application SETFA, percentage damage (five point scale) (Setaria faberi (SETFA) [11]) | PRE Application AMARE, percentage damage (five point scale) [12]
COc1ccc([N+](=O)[O-])cc1Cn1c(=O)c(C(=O)Nc2nnnn2C)nn(C)c1=O [Compound 1.081] | 5 (5=80-100%) | 5 (5=80-100%) | 5 (5=80-100%) | 5 (5=80-100%) | 4 (4=60-79%) | 5 (5=80-100%) | 5 (5=80-100%) | 5 (5=80-100%) | 2 (2=20-39%) | 5 (5=80-100%) | 4 (4=60-79%) | 5 (5=80-100%)
Cn1nnnc1NC(=O)c1nn(C)c(=O)n(Cc2ccccc2Br)c1=O [Compound 1.082] | 5 (5=80-100%) | 5 (5=80-100%) | 5 (5=80-100%) | 5 (5=80-100%) | 5 (5=80-100%) | 5 (5=80-100%) | 5 (5=80-100%) | 5 (5=80-100%) | 3 (3=40-59%) | 5 (5=80-100%) | 2 (2=20-39%) | 5 (5=80-100%)
Cn1nnnc1NC(=O)c1nn(C)c(=O)n(Cc2ccccc2C#N)c1=O [Compound 1.083] | 5 (5=80-100%) | 5 (5=80-100%) | 5 (5=80-100%) | 5 (5=80-100%) | 5 (5=80-100%) | 5 (5=80-100%) | 5 (5=80-100%) | 5 (5=80-100%) | 5 (5=80-100%) | 5 (5=80-100%) | 5 (5=80-100%) | 5 (5=80-100%)
Cn1nnnc1NC(=O)c1nn(C)c(=O)n(Cc2cccc(Cl)c2)c1=O [Compound 1.084] | 5 (5=80-100%) | 5 (5=80-100%) | 5 (5=80-100%) | 5 (5=80-100%) | 5 (5=80-100%) | 5 (5=80-100%) | 5 (5=80-100%) | 5 (5=80-100%) | 2 (2=20-39%) | 5 (5=80-100%) | 2 (2=20-39%) | 5 (5=80-100%)
